Assay results taken from patent publication US20230285399A1, “Compound for the treatment and prophylaxis of a lipofuscin-associated disease and/or a disease associated with aged oxidized melanin” (EBERHARD KARLS UNIVERSITAET TUEBINGEN MEDIZINISCHE FAKULTAET, priority 2020, published 2023).
Entries after “also recorded” stand apart in the source; their conditions may differ.

How the values were obtained:
pigmented Abca^4−/− mice [1] = conditions: mouse, in vivo
function of the retina = conditions: mouse, in vivo
pigmented Abca^4−/− mice [2] = experiment: Combination of SIN-1 with riboflavin, quantification of fluorescent lipofuscin granules; format: in vivo; conditions: 130 μg SIN-1 alone or with 80 μg Riboflavin, intravitreal, 48 hours; 100% is stated as locally
albino Abca^4−/− mice [3] = experiment: Analysis of degradation products from lipofuscin (bisretinoids) after SIN-1 by HPLC; format: in vivo; conditions: 130 μg SIN-1 into the right eye, 48 hours, 6 month old albino mice
Procedure: (§1) Seven albino and 6 pigmented mice were used. The left eyes remained untreated as control. After 48 hours the eyes from the Abca^4-/- mice were enucleated, immediately snap-frozen and stored at -80° C. for further processing. All the tissue preparation was made under dim red light and bisretinoids were extracted from the whole eyes and analyzed by HPLC following published protocols (Radu et al. 2004; Fang et al. 2020). Data were presented as picomoles per eye for A2E, iso-A2E, Total A2E or milli-absorbance (mAU) per eye for the other bisretinoids: […], dihydro-A2PE (A2PE-H2), and all-trans-RAL-dimer PE conjugates (at-RAL dimer-PE) as described (Radu et al. 2004).

pigmented Abca^4−/− mice [4] = experiment: as above; format: in vivo; conditions: 130 μg SIN-1 into the right eye, 48 hours, 6 month old mice, whole eyes; stated for all mice
Procedure: as §1

albino Abca^4−/− mice [5] = experiment: Removal of lipofuscin from RPE with SIN-1, fluorescence microscopy (SW-AF) of semi-thin eye sections; format: in vivo; conditions: 130 μg SIN-1 into the right eye, 48 hours, vs untreated eyes
Procedure: Pigmented WT mice (12952), pigmented Abca^4-/- mice (12954/SvJae-Abca4[…] albino Abca^4-/- mice^(BALB/c-Abca4tm1Ght) (Stargardt mice) were used in this work. WT mice were purchased from Harlan Laboratories ([…], UK), the knock-out strains were bred in the inventor's in-house facility. Light cycling was 12 h light (approximately 50 lx in cages)/12 h dark, food and water were available ad libitum. Animals were anesthetized by i.p. injection of a mix of fentanyl (0.05 mg/kg body weight), midazolam (5.0 mg/kg body weight) and medetomidine (0.50 mg/kg body weight). […] The mice were 2 years old. The left eyes remained untreated as controls. The mice were killed 48 hours after the injections and the eyes were […]. Mouse eyes were fixed, embedded in epon resin and sectioned according to standard procedures. For fluorescence analysis, post-fixation and staining with heavy metals was omitted. […] Binning x2 was applied for all images and acquisition times, as well as microscope and software settings were held constant for any set of samples to allow comparison of fluorescence intensities. […] Fluorescence intensities were determined using Fiji software. Regions of interest were determined in fluorescence and BF images using the default threshold, and area and integrated optical density (IOD) of the region of interest were measured. […]

pigmented Abca^4−/− mice [6] = experiment: Removal of lipofuscin from RPE with SIN-1, fluorescence microscopy (SW-AF, NIR-AF) of semi-thin eye sections; format: in vivo
Procedure: Pigmented WT mice (12952), pigmented Abca^4-/- mice (12954/SvJae-Abca4[…] albino Abca^4-/- mice^(BALB/c-Abca4tm1Ght) (Stargardt mice) were used in this work. WT mice were purchased from Harlan Laboratories ([…], UK), the knock-out strains were bred in the inventor's in-house facility. Light cycling was 12 h light (approximately 50 lx in cages)/12 h dark, food and water were available ad libitum. Animals were anesthetized by i.p. injection of a mix of fentanyl (0.05 mg/kg body weight), midazolam (5.0 mg/kg body weight) and medetomidine (0.50 mg/kg body weight). […] The mice were 2 years old. The left eyes remained untreated as controls. The mice were killed 48 hours after the injections and the eyes were […]. Mouse eyes were fixed, embedded in epon resin and sectioned according to standard procedures. For fluorescence analysis, post-fixation and staining with heavy metals was omitted. […] Filter sets were a custom made lipofuscin filter set (excitation 370/36 nm, emission 575/15, 400 nm beam splitter) for short wavelength-autofluorescence (SW-AF) and a commercial Cy7 filter set (excitation 708/75 nm, emission 809/81 nm, 757 nm beam splitter) for NIR-AF (Near infrared AF), respectively. The lipofuscin filter set is designed to fit the reported excitation and emission maximums for lipofuscin. Binning x2 was applied for all images and acquisition times, as well as microscope and software settings were held constant for any set of samples to allow comparison of fluorescence intensities. If indicated, images with low AF intensities were post-processed with the Auto adjust colors function of the […] software to allow the localization of weak AF signals. This function enhances the contrast by redefining the darkest pixel as pure black and the brightest pixel as pure white in the histogram on a channel-by-channel basis. Fluorescence intensities were determined using Fiji software. Regions of interest were determined in fluorescence and BF images using the default threshold, and area and integrated optical density (IOD) of the region of interest were measured. […] Student's t-test with JMP 13 software (SAS, Cary, NC, USA) was used for statistical analysis. P<0·05 was considered statistically significant.

[7] = SIN-1 treated eye vs untreated eye of the same mouse

Row | Structure (SMILES) | fluorescence of lipofuscin (fluorescence intensity, arbitrary units, FIG. 3) (pigmented Abca^4−/− mice [1]) | reduction of the amount of fluorescent lipofuscin granules (pigmented Abca^4−/− mice [1]) [%] | ERG responses, treated vs untreated eye (function of the retina) | number of lipofuscin granules in RPE cell layer under the fluorescence microscope (FIG. 4) (pigmented Abca^4−/− mice [1]) | removal of fluorescent lipofuscin granules from the RPE cells (pigmented Abca^4−/− mice [2]) [%] | enhancement of lipofuscin metabolites in albino mice compared with pigmented mice (albino Abca^4−/− mice [3]) | amount of degradation products of lipofuscin (A2E, iso-A2E, Total A2E, A2PE, A2PE-H2, at-RAL dimer-PE) (pigmented Abca^4−/− mice [4]) | fluorescence of lipofuscin (SW-AF) (albino Abca^4−/− mice [5]) | lipofuscin content in the retinal pigment epithelium (RPE), recognized by the loss of SW-AF (pigmented Abca^4−/− mice [6]; 130 μg SIN-1 into the right eye, 48 hours, mean of 5 eyes vs 5 untreated eyes, mice 2 years old) | NIR-AF fluorescence of the melanosomes (RPE) (pigmented Abca^4−/− mice [6]; 130 μg SIN-1 into the right eye, 48 hours, vs untreated eye) | NIR-AF in the melanosomes of the choroidal melanocytes (pigmented Abca^4−/− mice [6]; [7]) | number of lipofuscin granules in SW-AF image of semi thin sections (pigmented Abca^4−/− mice [6]; [7])
1 | O=[N+]([O-])O[C@@H]1CO[C@H]2[C@@H]1OC[C@@H]2O [IS5, Isosorbide mononitrate] | removed the fluorescence of lipofuscin | 77 | no difference between the treated and the untreated eyes |  |  |  |  |  |  |  |  | 
2 | O=[N+]([O-])OC1COC2C(O[N+](=O)[O-])COC12 (centres unmarked) [Isoket, 3,6-bisnitrooxyhexahydrofuro[3,2-b]-furan] | removed the fluorescence of lipofuscin |  | no difference between the treated and the untreated eyes | reduced the number of lipofuscin granules clearly |  |  |  |  |  |  |  | 
3 | N=c1c[n+](N2CCOCC2)[n-]o1 [SIN-1, 3-morpholinosydnonimine] |  |  |  |  | 75 | much lesser | enhanced the amount of the degradation products of lipofuscin significantly | no effect | significant (p<0.05) reduction | reduced but not significant (p>0.05); also recorded: somewhat diminished | seems to be not effected | reduced in number
